The numbers were not newly measured in patent US20020022041A1, “Composition and process for treating pollution” (priority 2000, published 2002), which cites them from elsewhere.

The conditions of this data set: non-toxic as defined by Section 313 Title III of SARA.

`CCCCCCCC/C=C\CCCCCCCC(=O)O` [Oleic Acid]: the Toxicity entry is given as “Non toxic”.

With `CCCCOCCOCCO` [2-, 2-(2-butoxyethoxy)ethanol], the Toxicity entry is “Non toxic”.

Consider `CCCCCCCCCCCCOP(=O)(O)O` [Lauryl Phosphate Soln, Lauryl Phosphate], for which the Toxicity result is reported as “Non toxic”.
